Source: EPA's ToxRefDB 2

What was measured:
[1] = tested on: rat; conditions: Prenatal developmental toxicity study, sprague dawley, Oral, Gavage/Intubation, dose end: 15 GD
[2] = tested on: mouse; conditions: Subchronic oral toxicity in rodents, cd1, Feed, dose end: 90 day
[3] = tested on: rat; conditions: Multigenerational reproductive toxicity study, sprague dawley, Oral, Feed, dose end: 2 generation
[4] = tested on: dog; conditions: Subchronic oral toxicity in nonrodent, beagle, Feed, dose end: 28 day, group: systemic
[5] = tested on: rat; conditions: Subchronic oral toxicity in rodents, sprague dawley, Feed, dose end: 13 week, group: systemic
[6] = tested on: rat; conditions: Subchronic oral toxicity in rodents, sprague dawley, Feed, dose end: 13 week, group: systemic, systemic / in life observation / body weight / body weight + systemic / in life observation / body weight / body weight gain + systemic / in…
[7] = tested on: mouse; conditions: Carcinogenicity, cd1, Oral, Feed, dose end: 78 week, group: systemic
[8] = tested on: dog; conditions: Subchronic oral toxicity in nonrodent, beagle, Feed, dose end: 90 day, group: systemic
[9] = tested on: rat; conditions: Combined chronic toxicity/carcinogenicity, other, Oral, Feed, dose end: 24 month, group: systemic
[10] = tested on: rat; conditions: Subchronic oral toxicity in rodents, sprague dawley, Feed, dose end: 90 day, group: systemic
[11] = tested on: dog; conditions: Chronic toxicity, beagle, Oral, Feed, dose end: 52 week, group: systemic
[12] = group: developmental, developmental / developmental malformation / bone / short
[13] = group: maternal, systemic / in life observation / body weight / body weight + systemic / in life observation / body weight / body weight gain + systemic / in…
[14] = group: cholinesterase, cholinesterase / cholinesterase / cholinesterase / cholinesterase (che)
[15] = group: systemic, systemic / clinical chemistry / glucose / glucose + systemic / in life observation / body weight / body weight + systemic / in life …
[16] = group: offspring, developmental / developmental landmark / preputial separation / preputial separation + systemic / in life observation / body weight / litter…
[17] = group: parental, systemic / in life observation / body weight / body weight + systemic / in life observation / body weight / body weight gain + systemic / in…
[18] = group: reproductive, reproductive / offspring survival early / litter size / litter size
[19] = systemic / in life observation / body weight / body weight gain
[20] = systemic / in life observation / body weight / body weight gain + systemic / in life observation / food consumption / food consumption + …
[21] = systemic / pathology microscopic / kidney / inclusion body intranuclear
[22] = systemic / pathology microscopic / kidney / inclusion body intranuclear + systemic / in life observation / body weight / body weight + …
[23] = systemic / in life observation / body weight / body weight + systemic / in life observation / body weight / body weight gain + systemic / …
[24] = systemic / pathology microscopic / bone marrow / hyperplasia
[25] = systemic / in life observation / body weight / body weight gain + systemic / in life observation / body weight / body weight + systemic / in…
[26] = systemic / in life observation / clinical signs / respiration (rales)
[27] = systemic / pathology microscopic / spleen / pigmentation
[28] = systemic / pathology microscopic / spleen / pigmentation + systemic / in life observation / body weight / body weight + systemic / in life …
[29] = systemic / in life observation / body weight / body weight + systemic / in life observation / body weight / body weight gain + systemic / in…

CC(=NC#N)N(C)Cc1ccc(Cl)nc1 [Acetamiprid]
LEL [1, 12]: 50 mg/kg/day | LOAEL [1, 12]: 50 mg/kg/day | NEL [1, 12]: 16 mg/kg/day | NOAEL [1, 12]: 16 mg/kg/day | LEL [1, 13]: 50 mg/kg/day | LOAEL [1, 13]: 50 mg/kg/day | NEL [1, 13]: 16 mg/kg/day | NOAEL [1, 13]: 16 mg/kg/day | LEL [2, 14]: 430 mg/kg/day | LOAEL [2, 14]: > 430 mg/kg/day | NEL [2, 14]: 211 mg/kg/day | NOAEL [2, 14]: ≥ 430 mg/kg/day | LEL [2, 15]: 211 mg/kg/day | LOAEL [2, 15]: 211 mg/kg/day | NEL [2, 15]: 106 mg/kg/day | NOAEL [2, 15]: 106 mg/kg/day | LEL ([3]; group: offspring, developmental / developmental landmark / preputial separation / preputial separation): 17.9 mg/kg/day | LOAEL [3, 16]: 51 mg/kg/day | NEL [3, 16]: 6.5 mg/kg/day | NOAEL [3, 16]: 17.9 mg/kg/day | LOAEL [3, 17]: 51 mg/kg/day | NEL [3, 17]: 6.5 mg/kg/day | NOAEL [3, 17]: 17.9 mg/kg/day | LEL ([3]; group: parental, systemic / in life observation / body weight / body weight gain): 17.9 mg/kg/day | LEL [3, 18]: 51 mg/kg/day | LOAEL [3, 18]: 51 mg/kg/day | NEL [3, 18]: 17.9 mg/kg/day | NOAEL [3, 18]: 17.9 mg/kg/day | LEL [4, 19]: 28 mg/kg/day | LOAEL [4, 19]: 28 mg/kg/day | NEL [4, 20]: 16.7 mg/kg/day | NOAEL [4, 20]: 16.7 mg/kg/day | LEL [5, 21]: 250 mg/kg/day | LOAEL [5, 21]: 250 mg/kg/day | NEL [5, 22]: 48.9 mg/kg/day | NOAEL [5, 22]: 48.9 mg/kg/day | LEL [6]: 50.8 mg/kg/day | LOAEL [6]: 50.8 mg/kg/day | NEL [6]: 12.4 mg/kg/day | NOAEL [6]: 12.4 mg/kg/day | LOAEL [7, 23]: 65.6 mg/kg/day | NOAEL [7, 23]: 20.3 mg/kg/day | LEL [7, 24]: 20.3 mg/kg/day | NEL [7, 24]: < 20.3 mg/kg/day | LOAEL [8, 19]: 32 mg/kg/day | NEL [8, 25]: 14 mg/kg/day | NOAEL [8, 25]: 14 mg/kg/day | LEL ([8]; systemic / in life observation / body weight / body weight gain + systemic / in life observation / food consumption / food consumption): 32 mg/kg/day | LEL [9, 26]: 7.1 mg/kg/day | NEL [9, 26]: < 7.1 mg/kg/day | LOAEL ([9]; systemic / pathology microscopic / liver / vacuolization): 17.5 mg/kg/day | NOAEL ([9]; systemic / pathology microscopic / liver / vacuolization + systemic / in life observation / body weight / body weight + systemic / in life …): 7.1 mg/kg/day | LEL [10, 27]: 112 mg/kg/day | LOAEL [10, 27]: 112 mg/kg/day | NEL [10, 28]: 36.5 mg/kg/day | NOAEL [10, 28]: 36.5 mg/kg/day | LOAEL ([11]; systemic / in life observation / body weight / body weight + systemic / in life observation / body weight / body weight gain): 55 mg/kg/day | LEL [11, 29]: 55 mg/kg/day | NEL [11, 29]: 20 mg/kg/day | NOAEL [11, 29]: 20 mg/kg/day
